In publication PMC9886550, “Molecular mechanism of topoisomerase poisoning by the peptide antibiotic albicidin” (Nature Catalysis, 2023):

How the values were obtained:
Assay type in all cases: biochemical
E. coli gyrase GyrA^D72N = biological target: T1, E. coli gyrase GyrA^D72N (Escherichia coli, UniProt P0AES4+P0AES6); details: in words
T1 construct: alternative cryo-EM approach involving full-length E. coli gyrase; 10-His (cleaved yes); Twin-Strep (cleaved yes); made in house
Procedure: (§1) For DNA gyrase supercoiling assays to characterize gyrase mutants, 15 µl reactions were set up containing 250 ng of relaxed DNA, E. coli gyrase supercoiling buffer (35 mM Tris–Cl pH 7.5, 24 mM KCl, 4 mM MgCl2, 2 mM DTT, 1.8 mM spermidine, 1 mM ATP, 6.0% (w/v) glycerol, and 0.1 mg ml^−1 BSA), gyrase subunits and inhibitors. Concentrations of enzyme and inhibitor are stated in the figure legends. Inhibitors were diluted in the following way to reduce the chance of precipitation: stock compound in 100% DMSO was diluted to 5 mM in 100% DMSO. This compound solution was diluted to 1 mM by stepwise addition of 1 µl of 50% DMSO with thorough mixing via pipetting after each addition. All subsequent dilutions up to 100 µM were performed in the same way using H2O. After this point, compounds were stable and could be diluted in the normal way. Reactions were incubated at 37 °C for 30 min before stopping with 15 µl chloroform:isoamyl alcohol (24:1 v/v) and 15 µl of STEB (40% (w/v) sucrose, 100 mM Tris–Cl pH 8, 10 mM EDTA, 0.5 mg ml^−1 bromophenol blue).
Cleavage assays were set up in the same way as supercoiling assays with some modifications. The concentration of enzyme was increased 4-fold relative to the supercoiling assay and reactions were incubated for 1 h before addition of 0.2% SDS and proteinase K (0.2 mg ml^−1) and further incubation at 37 °C for 30 min to trap cleavage complexes. […]

[1] = biological target: T2, E. coli gyrase GyrA^M120A (Escherichia coli, UniProt P0AES4+P0AES6, M120A); test: DNA gyrase cleavage assay (CC50, % cleaved DNA); details: for % maximal cleavage: GyrAM120A, average of 3 independent assays; for EC50: GyrA^M120A, mean ± s.d. of triplicate
T2 construct: alternative cryo-EM approach involving full-length E. coli gyrase; 10-His (cleaved yes); Twin-Strep (cleaved yes); made in house
Procedure: as §1
(§2) Cleavage assays were set up in the same way as supercoiling assays with some modifications. The concentration of enzyme was increased 4-fold relative to the supercoiling assay and reactions were incubated for 1 h before addition of 0.2% SDS and proteinase K (0.2 mg ml^−1) and further incubation at 37 °C for 30 min to trap cleavage complexes. Reactions were stopped in the same way as supercoiling assays.
(§3) Results were visualized by agarose gel electrophoresis: 1% agarose Tris-acetate-EDTA (TAE) gels were run without ethidium bromide (supercoiling) or with 10 µg ml^−1 ethidium bromide (cleavage) at 8 V cm^−1.
(§4) DNA cleavage gels were analysed using densitometry (ImageJ). Experiments were carried out in triplicate and expressed as mean ± s.d. Curves were fitted using OriginPro 2021 (Origin Lab) according to a modified Hill equation:1 y=cI+(cF−cI)[…]/(k^n+x^n) where y is the percentage of cleaved DNA, cI is the initial cleavage, cF is the final cleavage, k is the CC50 (the concentration of inhibitor that results in cleavage of 50% of DNA), n is a slope factor and x is the inhibitor concentration.

E. coli gyrase GyrA^A67Q = biological target: T3, E. coli gyrase GyrA^A67Q (Escherichia coli, UniProt P0AES4+P0AES6, A67Q); test: DNA gyrase cleavage assay (CC50, % cleaved DNA)
T3 construct: alternative cryo-EM approach involving full-length E. coli gyrase; 10-His (cleaved yes); Twin-Strep (cleaved yes); made in house
Procedure: as §1, §2, §3, §4

[2] = biological target: T4, E. coli gyrase GyrB^K447W (Escherichia coli, UniProt P0AES4+P0AES6, K447W); test: DNA gyrase cleavage assay (CC50, % cleaved DNA); details: for % maximal cleavage: GyrBK447W, average of 3 independent assays; for EC50: GyrB^K447W, mean ± s.d. of triplicate
T4 construct: alternative cryo-EM approach involving full-length E. coli gyrase; 10-His (cleaved yes); Twin-Strep (cleaved yes); made in house
Procedure: as §1, §2, §3, §4

E. coli gyrase GyrA^S83L = biological target: T5, E. coli gyrase GyrA^S83L (Escherichia coli, UniProt P0AES4+P0AES6, S83L); test: DNA gyrase cleavage assay (CC50, % cleaved DNA); details: for % maximal cleavage: GyrAS83L, average of 3 independent assays; for EC50: GyrA^S83L, mean ± s.d. of triplicate
T5 construct: alternative cryo-EM approach involving full-length E. coli gyrase; 10-His (cleaved yes); Twin-Strep (cleaved yes); made in house
Procedure: as §1, §2, §3, §4

E. coli gyrase GyrA^V70A = biological target: T6, E. coli gyrase GyrA^V70A (Escherichia coli, UniProt P0AES4+P0AES6, V70A); test: DNA gyrase cleavage assay (CC50, % cleaved DNA); details: for % maximal cleavage: GyrAV70A, average of 3 independent assays; for EC50: GyrA^V70A, mean ± s.d. of triplicate
T6 construct: alternative cryo-EM approach involving full-length E. coli gyrase; 10-His (cleaved yes); Twin-Strep (cleaved yes); made in house
Procedure: as §1, §2, §3, §4

E. coli Topo IV = E. coli Topo IV (Escherichia coli, UniProt P0AFI2+P20083); test: E. coli Topo IV relaxation assay; details: tested 0.1, 1, 10, 100 µM
E. coli Topo IV, sequence (P0AFI2 whole entry): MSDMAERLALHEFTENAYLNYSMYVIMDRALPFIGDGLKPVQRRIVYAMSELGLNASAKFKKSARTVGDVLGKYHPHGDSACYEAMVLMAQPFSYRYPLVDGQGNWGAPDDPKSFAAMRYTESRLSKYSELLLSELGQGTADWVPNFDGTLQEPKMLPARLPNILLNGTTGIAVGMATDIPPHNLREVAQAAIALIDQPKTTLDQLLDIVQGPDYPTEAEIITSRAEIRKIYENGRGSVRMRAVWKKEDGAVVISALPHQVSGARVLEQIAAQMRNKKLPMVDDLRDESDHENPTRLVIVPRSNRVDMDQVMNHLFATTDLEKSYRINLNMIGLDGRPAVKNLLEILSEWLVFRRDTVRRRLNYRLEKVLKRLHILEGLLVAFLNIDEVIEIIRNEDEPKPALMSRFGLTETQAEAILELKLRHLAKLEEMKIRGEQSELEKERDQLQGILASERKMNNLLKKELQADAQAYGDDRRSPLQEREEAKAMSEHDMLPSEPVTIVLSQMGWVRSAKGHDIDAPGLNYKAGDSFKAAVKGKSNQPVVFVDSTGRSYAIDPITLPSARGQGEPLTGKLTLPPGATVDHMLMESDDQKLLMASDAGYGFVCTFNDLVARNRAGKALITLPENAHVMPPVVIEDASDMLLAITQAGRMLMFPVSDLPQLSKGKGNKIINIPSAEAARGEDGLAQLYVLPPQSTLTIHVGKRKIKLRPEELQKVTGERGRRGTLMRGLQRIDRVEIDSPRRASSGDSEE
E. coli Topo IV, sequence (P20083 whole entry): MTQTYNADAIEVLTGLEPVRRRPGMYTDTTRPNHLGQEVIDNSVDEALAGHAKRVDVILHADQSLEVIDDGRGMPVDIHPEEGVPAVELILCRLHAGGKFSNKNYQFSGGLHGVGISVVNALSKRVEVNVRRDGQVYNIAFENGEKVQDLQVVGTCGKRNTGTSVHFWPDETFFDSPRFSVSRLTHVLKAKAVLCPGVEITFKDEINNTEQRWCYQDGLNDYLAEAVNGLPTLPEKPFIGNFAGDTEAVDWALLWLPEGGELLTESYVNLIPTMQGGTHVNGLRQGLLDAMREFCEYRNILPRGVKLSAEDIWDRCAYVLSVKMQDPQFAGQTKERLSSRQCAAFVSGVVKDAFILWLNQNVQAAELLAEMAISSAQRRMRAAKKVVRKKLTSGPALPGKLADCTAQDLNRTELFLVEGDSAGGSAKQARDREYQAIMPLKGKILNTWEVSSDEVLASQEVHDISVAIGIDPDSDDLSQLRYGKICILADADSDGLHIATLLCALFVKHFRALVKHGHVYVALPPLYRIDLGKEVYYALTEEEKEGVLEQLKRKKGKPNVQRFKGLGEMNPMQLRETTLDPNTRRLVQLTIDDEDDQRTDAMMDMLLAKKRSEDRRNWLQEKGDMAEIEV
Procedure: E. coli Topo IV relaxation assays were set up in the same way as supercoiling assays with some modifications. The substrate was negatively supercoiled DNA, E. coli Topo IV relaxation buffer (50 mM K-HEPES pH 7.6, 100 mM potassium glutamate, 10 mM magnesium acetate, 10 mM DTT, 1 mM ATP and 0.05 mg ml^−1 BSA) and reactions were incubated for 1 h. Reactions were stopped in the same way as supercoiling assays.
as §3
Supplementary Figure 11. Activity of albicidin and Albi-1/2/3 on E. coli topoisomerase IV. a. Plasmid relaxation activity of E. coli topo IV in the presence of albicidin, Albi-1, Albi-2 and Albi-3. First lane: negatively supercoiled pBR322; second lane: innate relaxation activity of E. coli topo IV (12.5 nM); third lane: effect of 20 µM CFX; subsequent lanes: effect of increasing compound concentration (0.1, 1, 10, 100 […]
higher concentration. b. Cleavage activity of E. coli topo IV in the presence of albicidin, Albi-1, Albi-2 and Albi-3. First lane: negatively supercoiled pBR322; second lane: innate cleavage activity of E. coli topo IV (15 nM); third lane: effect of 20 µM CFX; subsequent lanes: effect of increasing compound concentration (0.1, 1, 10, 100 µM). […]
concentration. All experiments were carried out in triplicates and representative gels […]
(1 picture or pasted object on this page, not shown here)

| SMILES | resistance of the variant judged by the CC50 (E. coli gyrase GyrA^D72N) | % maximal cleavage [1] [%] | EC50 [1] [nM] | % maximal cleavage (E. coli gyrase GyrA^A67Q; GyrAA67Q, average of 3 independent assays) [%] | EC50 (E. coli gyrase GyrA^A67Q; GyrA^A67Q, mean ± s.d. of triplicate) [nM] | % maximal cleavage [2] [%] | increase in CC50 ([2]; GyrB^K447W vs WT gyrase, 60 min) | EC50 [2] [nM] | % maximal cleavage (E. coli gyrase GyrA^S83L) [%] | EC50 (E. coli gyrase GyrA^S83L) [nM] | % maximal cleavage (E. coli gyrase GyrA^V70A) [%] | EC50 (E. coli gyrase GyrA^V70A) [nM] | concentration required for full inhibition of Topo IV relaxation activity (E. coli Topo IV) [µM] |
| --- | --- | --- | --- | --- | --- | --- | --- | --- | --- | --- | --- | --- | --- |
| CC(C)Oc1c(NC(=O)c2ccc(NC(=O)[C@H](Cc3c[nH]nn3)NC(=O)c3ccc(NC(=O)c4ccc(C#N)cc4)cn3)cn2)ccc(C(=O)Nc2ccc(C(=O)O)cc2)c1O [Albi-1] | did not show increased resistance | 68±3 | 15 ± 1.5 | 96±8 | 181 ± 67 | 83±3 | more than 50 fold | 412 ± 88 | 80±14 | 10 ± 1.5 | 90±2 | 16 ± 1.3 | 10 |
| COc1c(NC(=O)c2ccc(NC(=O)c3ccc(NC(=O)[C@H](Cc4c[nH]nn4)NC(=O)c4ccc(NC(=O)c5ccc6cc(O)ccc6c5)cc4)cn3)c(OCCN)c2O)ccc(C(=O)O)c1O [Albi-2] |  | 59±17 | 160 ± 15 |  |  | 59±6 |  | 251 ± 40 | 72±7 | 208 ± 34 | 58±2 | 189 ± 49 | 100 |
